Test results taken from patent US20230167118A1, “DEGRADATION OF BRUTON'S TYROSINE KINASE (BTK) BY CONJUGATION OF BTK INIDBITORS WITH E3 LIGASE LIGAND AND METHODS OF USE” (BEIGENE, LTD., priority 2020, published 2023).

Assays:
[1] = tested on: HEK-293 cells; test: HEK-293 Cytotoxicity Assay (CellTiter-Glo); format: cell-based; details: Homo sapiens, HEK293, 72 h incubation, CellTiter-Glo luminescence
Description: HEK-293 Cytotoxicity Assay
HEK-293 cells are treated with compounds diluted in 0.2% DMSO, dilution is done according to the following protocol: (1) make 500× stock solution in DMSO from 5 mM by 4-fold dilution, total 8 doses were included; (2) make 2× solution in cell culture medium by transferring 0.5 ul 500× stock solution into 125 ul medium; (3) 50 ul of 2× solution is added to cells and incubate for 72 h.
Add 25 μl of the CellTiter-Glo®Reagent [I (Promega)—Cat No. G7572] to each well in the 96-well plate. Mix contents for 2 minutes on an orbital shaker to induce cell lysis. Allow the plate to incubate at room temperature for 10 minutes to stabilize luminescent signal. Record luminescence on BMG PheraStar with luminescence protocol.
(§1) The IC50 value of a compound can be obtained by fitting the following equation. Y=Bottom+(TOP−Bottom)/(1+((IC50/X)^hillslope)) Wherein, X and Y are known values, and IC50, Hillslope, Top and Bottom are the parameters obtained by fitting with software. Y is the inhibition percentage (calculated from the equation), X is the concentration of the compound; IC50 is the concentration of the compound when the 50% inhibition is reached. The smaller the IC50 value is, the stronger the inhibitory ability of the compound is. Vice versa, the higher the IC50 value is, the weaker the ability the inhibitory ability of the compound is; Hillslope represents the slope of the fitted curve, generally around 1*; Bottom represents the minimum value of the curve obtained by data fitting, which is generally 0%±20%; Top represents the maximum value of the curve obtained by data fitting, which is generally 100%±20%. The experimental data were fitted by calculating and analyzing with Dotmatics data analysis software.

[2] = biological target: T1, BTK (Homo sapiens, UniProt Q06187); test: Cell Degradation: BTK degradation in TMD-8 cells, HTRF assay; format: cell-based; details: 6 h treatment, IC50 (DC50) of BTK degradation
T1 construct: High control=Cell group with added DMSO and without compound, indicating microplate readings without BTK degradation; endogenous in cells; host or cells: TMD-8 cells
Description: TMD-8 cells are treated with compounds in 0.2% DMSO, dilution is done according to the following protocol: (1) make 500× stock solution in DMSO from 1 mM by 6-fold dilution, total 8 doses were included; (2) make 2× solution in cell culture medium by transferring 0.5 μl 500× stock solution into 125 μl medium; (3) 15 μl of 2× solution is added to cells and incubate for 6 h.
After 6 h treatment, add […] 4×lysis buffer to each well; seal the plate and incubate 30 min at room temperature on a plate shaker; Once the cells are lysed, 16 μL of cell lysate are transferred to a PE 384-well HTRF detection plate; 4 μL of pre-mixed HTRF antibodies are added to each well; Cover the plate with a plate sealer, spin 1000 rpm for 1 min, Incubate overnight at room temperature; Read on BMG PheraStar with HTRF protocol (337 nm-665 nm-620 nm).
The inhibition (degradation) percentage of the compound was calculated by the following equation: Inhibition percentage of Compound=100-100× (Signal-low control)/(High control-low control), wherein signal=each test compound group
Dmax is the maximum percentage of inhibition (degradation).
The IC50 (DC50) value of a compound can be obtained by fitting the following equation
Y=Bottom+(TOP-Bottom)/(1+((IC50/X)^hillslope))
as §1, with “Wherein,” for “The IC50 value of a compound can be obtained by fitting the following equation. Y=Bottom+(TOP−Bottom)/(1+((IC50/X)^hillslope)) Wherein,”, “1 *;” for “1*;”

T1 sequence (Q06187 whole entry): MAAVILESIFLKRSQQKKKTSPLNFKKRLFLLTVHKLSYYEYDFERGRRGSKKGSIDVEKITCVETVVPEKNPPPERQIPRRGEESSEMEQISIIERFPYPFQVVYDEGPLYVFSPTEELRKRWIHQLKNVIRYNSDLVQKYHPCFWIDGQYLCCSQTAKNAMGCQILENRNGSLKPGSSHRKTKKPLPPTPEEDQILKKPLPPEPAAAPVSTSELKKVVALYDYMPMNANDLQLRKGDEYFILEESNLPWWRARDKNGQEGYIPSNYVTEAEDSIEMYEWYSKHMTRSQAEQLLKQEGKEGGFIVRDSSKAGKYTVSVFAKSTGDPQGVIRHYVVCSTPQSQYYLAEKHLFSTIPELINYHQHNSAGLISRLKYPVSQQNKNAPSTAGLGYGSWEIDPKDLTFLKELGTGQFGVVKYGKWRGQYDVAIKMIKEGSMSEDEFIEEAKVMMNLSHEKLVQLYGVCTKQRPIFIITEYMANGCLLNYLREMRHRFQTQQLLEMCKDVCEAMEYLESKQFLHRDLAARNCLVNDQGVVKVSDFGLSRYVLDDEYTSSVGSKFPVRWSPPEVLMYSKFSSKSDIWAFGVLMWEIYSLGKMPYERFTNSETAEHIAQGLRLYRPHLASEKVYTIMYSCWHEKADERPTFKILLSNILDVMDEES

Structure (SMILES) | DC50 [2] | IC50 [1]
Cc1cc(-c2ncnc3[nH]c(-c4ccc(C5CCN(CCC6CCN(c7ccc(N8CCC(=O)NC8=O)c(C)n7)CC6)CC5)cc4)cc23)ccc1CNC(=O)c1nc(C(C)(C)C)no1 [Example 13, 3-(tert-butyl)-N-(4-(6-(4-(1-(2-(1-(5-(2,4-dioxotetrahydropyrimidin-1(2H)-yl)-6-methylpyridin-2-yl)piperidin-4-yl)ethyl)piperidin-4-yl)phenyl)-7H-pyrrolo[2,3-d]pyrimidin-4-yl)-2-methylbenzyl)-1,2,4-oxadiazole-5-carboxamide] | 2.3 nM | 1.86 µM
Cc1cc(-c2ncnc3[nH]c(-c4ccc(C5CCN(CCC6CCN(c7ccc(N8CCC(=O)NC8=O)c(F)c7)CC6)CC5)cc4)cc23)ccc1CNC(=O)c1nc(C(C)(C)C)no1 [Example 15, 3-(tert-butyl)-N-(4-(6-(4-(1-(2-(1-(4-(2,4-dioxotetrahydropyrimidin-1(2H)-yl)-3-fluorophenyl)piperidin-4-yl)ethyl)piperidin-4-yl)phenyl)-7H-pyrrolo[2,3-d]pyrimidin-4-yl)-2-methylbenzyl)-1,2,4-oxadiazole-5-carboxamide] | 1 nM | 1.23 µM
CC(C)(C)c1noc(C(=O)NCc2ccc(-c3ncnc4[nH]c(-c5cnn(C6CCN(CC7CCN(c8ccc(N9CCC(=O)NC9=O)cc8)CC7)CC6)c5)cc34)cc2F)n1 [Example 16, 3-(tert-butyl)-N-(4-(6-(1-(1-((1-(4-(2,4-dioxotetrahydropyrimidin-1(2H)-yl)phenyl)piperidin-4-yl)methyl)piperidin-4-yl)-1H-pyrazol-4-yl)-7H-pyrrolo[2,3-d]pyrimidin-4-yl)-2-fluorobenzyl)-1,2,4-oxadiazole-5-carboxamide] | 0.55 nM | > 10 µM
Cc1cc(-c2ncnc3[nH]c(-c4ccc(C5CCN(CC6CCN(c7ccc8c(c7)CN(C7CCC(=O)NC7=O)C8=O)CC6)CC5)cc4)cc23)ccc1CNC(=O)c1nc(C(C)(C)C)no1 (centres unmarked) [Example 17, 3-(tert-butyl)-N-(4-(6-(4-(1-((1-(2-(2,6-dioxopiperidin-3-yl)-1-oxoisoindolin-5-yl)piperidin-4-yl)methyl)piperidin-4-yl)phenyl)-7H-pyrrolo[2,3-d]pyrimidin-4-yl)-2-methylbenzyl)-1,2,4-oxadiazole-5-carboxamide] | 3.2 nM | > 10 µM
Cc1cc(-c2ncnc3[nH]c(-c4ccc(C5CCN(CCC6CCN(c7ccc(N8CCC(=O)NC8=O)c(C)c7)CC6)CC5)cc4)cc23)ccc1CNC(=O)c1nc(C(C)(C)C)no1 [Example 22, 3-(tert-butyl)-N-(4-(6-(4-(1-(2-(1-(4-(2,4-dioxotetrahydropyrimidin-1(2H)-yl)-3-methylphenyl)piperidin-4-yl)ethyl)piperidin-4-yl)phenyl)-7H-pyrrolo[2,3-d]pyrimidin-4-yl)-2-methylbenzyl)-1,2,4-oxadiazole-5-carboxamide] | 2.3 nM | 1.56 µM
Cc1cc(-c2ncnc3[nH]c(-c4ccc(C5CCN(CCC6CCN(c7ccc(N8CCC(=O)NC8=O)c(Cl)c7)CC6)CC5)cc4)cc23)ccc1CNC(=O)c1nc(C(C)(C)C)no1 [Example 24, 3-(tert-butyl)-N-(4-(6-(4-(1-(2-(1-(3-chloro-4-(2,4-dioxotetrahydropyrimidin-1(2H)-yl)phenyl)piperidin-4-yl)ethyl)piperidin-4-yl)phenyl)-7H-pyrrolo[2,3-d]pyrimidin-4-yl)-2-methylbenzyl)-1,2,4-oxadiazole-5-carboxamide] | 4.8 nM | 4.65 µM

Second part, led by results:

DC50 [2] | Structure (SMILES) | IC50 [1]
0.72 nM | Cc1cc(-c2ncnc3[nH]c(-c4ccc(N5CCN(CC6CCN(c7ccc(N8CCC(=O)NC8=O)cc7)CC6)CC5)nc4)cc23)ccc1[C@@H](C)NC(=O)c1nc(C(C)(C)C)no1 [Example 14, (R)-3-(tert-butyl)-N-(1-(4-(6-(6-(4-((1-(4-(2,4-dioxotetrahydropyrimidin-1(2H)-yl)phenyl)piperidin-4-yl)methyl)piperazin-1-yl)pyridin-3-yl)-7H-pyrrolo[2,3-d]pyrimidin-4-yl)-2-methylphenyl)ethyl)-1,2,4-oxadiazole-5-carboxamide] | > 10 µM
1.7 nM | Cc1cc(-c2ncnc3[nH]c(-c4ccc(N5CCN(CC6CCN(c7ccc(N8CCC(=O)NC8=O)cc7)CC6)CC5)cc4)cc23)ccc1CNC(=O)c1nc(C(C)(C)C)no1 [Example 18, 3-(tert-butyl)-N-(4-(6-(4-(4-((1-(4-(2,4-dioxotetrahydropyrimidin-1(2H)-yl)phenyl)piperidin-4-yl)methyl)piperazin-1-yl)phenyl)-7H-pyrrolo[2,3-d]pyrimidin-4-yl)-2-methylbenzyl)-1,2,4-oxadiazole-5-carboxamide] | > 10 µM
0.72 nM | Cc1cc(-c2ncnc3[nH]c(-c4ccc(N5CCN(CC6CCN(c7ccc(N8CCC(=O)NC8=O)cc7)CC6)CC5)cn4)cc23)ccc1[C@@H](C)NC(=O)c1nc(C(C)(C)C)no1 [Example 19, (R)-3-(tert-butyl)-N-(1-(4-(6-(5-(4-((1-(4-(2,4-dioxotetrahydropyrimidin-1(2H)-yl)phenyl)piperidin-4-yl)methyl)piperazin-1-yl)pyridin-2-yl)-7H-pyrrolo[2,3-d]pyrimidin-4-yl)-2-methylphenyl)ethyl)-1,2,4-oxadiazole-5-carboxamide] | > 10 µM
1.4 nM | Cc1cc(-c2ncnc3[nH]c(-c4ccc(N5CCN(CC6CCN(c7ccc(N8CCC(=O)NC8=O)cc7)CC6)CC5)cc4)cc23)ccc1[C@@H](C)NC(=O)c1nc(C(C)(C)C)no1 [Example 20, (R)-3-(tert-butyl)-N-(1-(4-(6-(4-(4-((1-(4-(2,4-dioxotetrahydropyrimidin-1(2H)-yl)phenyl)piperidin-4-yl)methyl)piperazin-1-yl)phenyl)-7H-pyrrolo[2,3-d]pyrimidin-4-yl)-2-methylphenyl)ethyl)-1,2,4-oxadiazole-5-carboxamide] | > 10 µM
1.7 nM | C[C@@H](NC(=O)c1nc(C(C)(C)C)no1)c1ccc(-c2ncnc3[nH]c(-c4ccc(N5CCN(CC6CCN(c7ccc(N8CCC(=O)NC8=O)cc7)CC6)CC5)cc4)cc23)cc1F [Example 21, (R)-3-(tert-butyl)-N-(1-(4-(6-(4-(4-((1-(4-(2,4-dioxotetrahydropyrimidin-1(2H)-yl)phenyl)piperidin-4-yl)methyl)piperazin-1-yl)phenyl)-7H-pyrrolo[2,3-d]pyrimidin-4-yl)-2-fluorophenyl)ethyl)-1,2,4-oxadiazole-5-carboxamide] | > 10 µM
0.87 nM | CC(C)(C)c1noc(C(=O)NCc2ccc(-c3ncnc4[nH]c(-c5ccc(C6CCN(CC7CCN(c8ccc(N9CCC(=O)NC9=O)cc8)CC7)CC6)cc5)cc34)cc2F)n1 [Example 23] | > 10 µM
1.4 nM | Cc1cc(-c2ncnc3[nH]c(-c4ccc(N5CCN(CC6CCN(c7ccc(N8CCC(=O)NC8=O)cc7)CC6)CC5)cc4)nc23)ccc1[C@@H](C)NC(=O)c1nc(C(C)(C)C)no1 [Example 25, (R)-3-(tert-butyl)-N-(1-(4-(8-(4-(4-((1-(4-(2,4-dioxotetrahydropyrimidin-1(2H)-yl)phenyl)piperidin-4-yl)methyl)piperazin-1-yl)phenyl)-9H-purin-6-yl)-2-methylphenyl)ethyl)-1,2,4-oxadiazole-5-carboxamide] | > 10 µM
